Laboratory results taken from US6572839B2, “Sensitizer for tumor treatment” (Hitachi, Ltd., priority 2000, dated 2003).
In brackets after ≈: the same amount, converted by molar mass. Read-outs that look alike come from different tables or passages of the source.

Tests used:
[1] = Evaluation of the acoustic cavitation promoting effect (subharmonic signal upon ultrasound irradiation); conditions: 0.5 MHz and 1 MHz; for subharmonic generation: 0.1 mmol/L in PBS (pH 7.4), acoustic intensity 5 W/cm^2, 1 minute
Description: A 0.1 mmol/L solution of RB—Cn in PBS (pH 7.4, containing 1% DMF) was sealed in a polyethylene bag (30×25 mm, 0.03 mm thick) and irradiated with ultrasonic waves of 0.5 MHz and 1 MHZ simultaneously under conditions of an acoustic intensity of 5 or 10 W/cm^2 and an exposure time of 1 minute, using an experimental apparatus having the constitution shown in FIG. 4.
In FIG. 4, 10 indicates degassed water, 11—a water tank, 12—a polyethylene bag, 13—a sample solution, 14-1 and 14-2 each—a holdfast, 15—a hanger, 16—a hydrophone, 17—a supporter, 18—an ultrasound transducer, 19—a supporter, 20—a signal processor, 21—an amplifier, 22—a spectrum analyzer, 23—an amplifier, and 24—a wave generator.
The acoustic signals at the subharmonic (250 kHz) characteristic to acoustic cavitation were measured at one-second intervals using a focusing type hydrophone, the root mean square of the signal amplitudes during the irradiation period was calculated and this was used as an indication of acoustic cavitation.
For comparison, a 0.1 mmol/L solution of RB in PBS (pH 7.4) was also measured for subharmonic signals. […] For each of RB and the RB—Cn species containing 3, 6 or 18 carbon atoms in the alkyl group (RB—C3, RB—C6 and RB—C18), the relation between acoustic intensity and subharmonic intensity is shown in FIG. 6.
Using a 0.1 mmol/L solution of RB—COOH—Cn in PBS (pH 7.4), the acoustic cavitation promoting effect was evaluated in the same manner as in Test Example 5.
Using a 0.1 mmol/L solution of xanthene dye sensitizer—COOH—Cn in PBS (pH 7.4), the acoustic cavitation promoting effect was evaluated in the same manner as in Test Example 5.

[2] = Solubility measurement of RB and lipophilic derivatives of RB in PBS and 1-octanol; format: physicochemical; conditions: for solubility: thermodynamic from solid
Description: The sonochemical sensitizers of the invention, namely RB—COOH—Cn species (n being the number of carbon atoms in the straight alkyl group) were examined for their solubility in an aqueous solution and in an organic solvent. The aqueous solution used was a phosphate buffer solution (hereinafter, PBS) with a pH of 7.4 and the organic solvent used was 1-octanol.
First, saturated solutions of each RB—COOH—Cn in PBS and in 1-octanol were prepared at 25° C. and each solution was measured for its ultraviolet-visible absorption spectrum. Based on the molar absorptivity determined beforehand by measuring the ultraviolet-visible absorption spectrum of a solution having a known concentration, the agent concentration in the saturated solution was estimated.
For comparison, the starting material RB and two kinds of RB derivative, for which an attempt was made to increase the lipophilicity by a method other than that of the invention, namely rose bengal alkyl esters (hereinafter, RB—Cn, n being the number of carbon atoms in the alkyl group) and rose bengal fatty acid esters (hereinafter, RB—Cn—COOH, n being the number of carbon atoms in the methylene chain), were also subjected to solubility measurement.
In the solubility measurement, the respective derivatives having an equal number of carbon atoms in the alkyl group (n=7) were used.

[3] = tested on: murine experimental tumor Colone 26; experiment: Evaluation of the accumulation of RB—COOH—Cn in tumor tissues (fluorescence intensity ratio); format: in vivo; conditions: tumor bearing CDF1 mice, intravenous, 10 mg/kg, until 120 minutes after administration, FIG. 3
Description: (§1) Tumor bearing mice were intravenously administered with RB or RB—Cn and, after the lapse of a predetermined period, tumor tissues were excised. The fluorescence spectrum of the agent extracted from the tumor tissues was measured and the concentration of the agent was estimated from the fluorescence intensity to thereby evaluate the accumulability in tumor tissues. Mice subjected to the test were 5-week male CDF1 mice one to two weeks after subcutaneous implantation of small pieces (e.g. 1 mm^3 pieces) of the murine experimental tumor Colone 26. The dose of the agent was 10 mg/kg and methanol or chloroform was used for the extraction.
Tumor bearing mice were intravenously administered with RB or RB—COOH—Cn and, after the lapse of a predetermined period, tumor tissues were excised. The fluorescence intensity of the tumor tissues was measured and the accumulability in tumor tissues was evaluated based on the ratio of that intensity and the fluorescence intensity of an internal standard (fluorescence intensity ratio). The mice used in the test and the dose of the agent were the same as in Test Example 3. As an example of the results, the relation between the time from agent administration to mice to tumor tissue excision and the fluorescence intensity ratio is shown in FIG. 3 for each of RB and RB—COOH—Cn species containing 2, 3, 7 or 15 carbon atoms in the alkyl group (RB—COOH—C2, RB—COOH—C3, RB—COOH—C7 and RB—COOH—C15).

[4] = Evaluation of the photosensitivity (photo-oxidation reaction of iodide); conditions: light of 365 nm, DMF solution, FIG. 9 / FIG. 10
Description: The photo-oxidation reaction of iodide as represented by Equation 4 was carried out in the presence of RB—Cn and the photosensitivity of the compound was evaluated.
A mixed solution composed of 2 mL of a 0.1 mol/L solution of potassium iodide in DMF and 1 mL of a 1 mmol/L solution of RB—Cn in DMF was placed in a glass dish (48 mm in diameter) and irradiated with light of 365 nm for a predetermined period. The absorbance, at 350 nm, of the sample was measured before and after exposure. 350 nm is the absorption maximum wavelength of I3^—. Based on the absorbance (A), the concentration of I3^— was calculated using Equation 5.
The procedure of Test Example 8 was followed in the presence of RB—COOH—Cn.

[5] = tested on: murine experimental tumor Colone 26; experiment: Evaluation of the accumulation of RB—Cn in tumor tissues (agent extracted, fluorescence); format: in vivo; conditions: tumor bearing CDF1 mice, intravenous, 10 mg/kg, until 120 minutes after administration, FIG. 2
Description: as §1

[6] = Preparation of RB solution and RB lipophilic derivative solutions for administration in vivo; format: physicochemical; conditions: target 10 mg/mL (RB—Cn 1 mg/mL), final pH about 7.4
Description: A solution each of RB (Formula 9), RB—Cn—COOH (Formula 11) and RB—COOH—Cn (Formula 12) with a concentration of 10 mg/mL and a solution of RB—Cn (Formula 10) with a concentration of 1 mg/mL were prepared.
RB: 50 mg of RB was dissolved in PBS (pH 7.4) and the whole volume was made 5 mL.
RB—Cn: 4 mg of RB—Cn was dissolved in 0.4 mL of DMSO. Then, 0.4 mL of ethanol, 0.3 mL of 0.1 N NaOH aqueous solution and 1.0 mL of PBS (pH 7.4) were added and, further, 0.1 N hydrochloric acid was added to adjust the pH to about 7.4 and the whole volume was made 4 mL by further adding PBS (pH 7.4). The DMSO accounted for 10% of the whole solution.
RB—C7—COOH: 30 mg of RB—C7—COOH was dissolved in 1.2 mL of 0.1 N NaOH aqueous solution, 0.1 N hydrochloric acid was added to adjust the pH to about 7.4 and the whole volume was made 3 mL by further adding PBS (pH 7.4).
RB—COOH—Cn: n=2 to 10:30 mg of each RB—COOH—Cn was dissolved in 1.2 mL of 0.1 N NaOH aqueous solution, 0.1 N hydrochloric acid was added to adjust the pH to about 7.4 and the whole volume was made 3 mL by further adding PBS (pH 7.4). […].
n=11 to 20:30 mg of each RB—COOH—Cn was dissolved in 0.6 mL of DMF. Then, 1.2 mL of 0.1 N NaOH aqueous solution was added, 0.1 N hydrochloric acid was added to adjust the pH to about 7.4 and the whole volume was made 3 mL by further adding PBS (pH 7.4).

[7] = Evaluation for bubble stability; format: physicochemical; conditions: 0.1 mmol/L in PBS (pH 7.4), 4 mL shaken 5 minutes
Description: Using a 0.1 mmol/L solution of RB—COOH—C7 in PBS (pH 7.4), the stability of bubbles was measured. 4 mL of the solution of RB—COOH—C7 was placed in a test tube having a length of […] and shaken on a shaker for 5 minutes and then the time until the disappearance of the bubbles was measured. PBS was used as a control.

[8] = Evaluation for contrast-enhancing effect (ultrasound imaging); format: in vivo; conditions: dog, 5 mL of 0.1 mmol/L solution intravenously, 5 MHz linear probe, mode B
Description: Using an ultrasound diagnostic system equipped with a linear probe with a central frequency of 5 MHz, 5 mL of the solution of RB—COOH—C7 obtained in Test Example 10 was intravenously administered to a dog (weighing 12 kg, 2 years old) while ultrasonically scanning the hepatic region of the dog with mode B. Immediately thereafter, 5 mL of physiological saline was administered. After administration, the hepatic artery and aorta were imaged and the imaging lasted for about 30 seconds.

CCCCCCC(OC(=O)c1ccccc1-c1c2cc(I)c(=O)c(I)c-2oc2c(I)c(O)c(I)cc12)C(=O)O (stereo not drawn) [EB—COOH—C7, Erythrosine B-α-carboxyheptyl ester]
subharmonic generation [1]: observed

O=C([O-])c1c(Cl)c(Cl)c(Cl)c(Cl)c1-c1c2cc(Br)c(=O)c(Br)c-2oc2c(Br)c([O-])c(Br)cc12.[Na+].[Na+] [PB, phloxine B sodium salt]
subharmonic generation [1]: observed

O=C(O)CCCCCCCOC(=O)c1c(Cl)c(Cl)c(Cl)c(Cl)c1-c1c2cc(Br)c(=O)c(Br)c-2oc2c(Br)c(O)c(Br)cc12 [PB—COOH—C7, Phloxine B-α-carboxyheptyl ester]
subharmonic generation [1]: observed

O=C([O-])c1c(Cl)c(Cl)c(Cl)c(Cl)c1-c1c2cc(I)c(=O)c(I)c-2oc2c(I)c([O-])c(I)cc12.[Na+].[Na+] [RB, rose bengal sodium salt]
solubility ([2]; 1-octanol, organic solvent or mixture, saturated solution at 25° C., organic solvent, read-out: solubility in 1-octanol): < 0.1 mM | solubility ([2]; phosphate buffer solution (PBS), pH 7.4, aqueous buffer, saturated solution at 25° C., aqueous solution, read-out: solubility in PBS (pH 7.4)): 220 mM | solubility in 1-octanol ([2]; saturated solution at 25° C., organic solvent, sodium salt): <0.1 mM | occurrence/concentration in tumor tissues (fluorescence intensity ratio to internal standard) [3]: hardly observed | subharmonic generation [1]: observed | relation between light exposure time and yield in photo-oxidation of iodide [4]: almost proportional to the exposure time | agent concentration in tumor tissues [5]: hardly observed | dissolution behaviour when preparing solution for administration in vivo [6]: soluble as it was in PBS (pH 7.4)

CCCCCCOC(=O)c1c(Cl)c(Cl)c(Cl)c(Cl)c1-c1c2cc(I)c(=O)c(I)c-2oc2c(I)c(O)c(I)cc12 [RB—C6]
subharmonic generation [1]: observed | relation between light exposure time and yield in photo-oxidation of iodide [4]: almost proportional to the exposure time | agent concentration in tumor tissues [5]: higher as compared with RB

CCCCCCCCCCCCCCCCCCOC(=O)c1c(Cl)c(Cl)c(Cl)c(Cl)c1-c1c2cc(I)c(=O)c(I)c-2oc2c(I)c(O)c(I)cc12 [RB—C18]
subharmonic formation ([1]; 0.1 mmol/L in PBS (pH 7.4, 1% DMF), ultrasound intensity 10 W/cm^2, 1 minute): no subharmonic formation was observed | relation between light exposure time and yield in photo-oxidation of iodide [4]: almost proportional to the exposure time | agent concentration in tumor tissues [5]: higher as compared with RB

CCCCCCCCCCOC(=O)c1c(Cl)c(Cl)c(Cl)c(Cl)c1-c1c2cc(I)c(=O)c(I)c-2oc2c(I)c(O)c(I)cc12 [RB—CLO]
relation between light exposure time and yield in photo-oxidation of iodide [4]: almost proportional to the exposure time

O=C(O)CCCCCCCOC(=O)c1c(Cl)c(Cl)c(Cl)c(Cl)c1-c1c2cc(I)c(=O)c(I)c-2oc2c(I)c(O)c(I)cc12 [RB—COOH—C7, Rose bengal-α-carboxyheptyl ester]
solubility in the organic solvent relative to that of RB—C7—COOH ([2]; 1-octanol): about 5 times | solubility in 1-octanol (organic solvent) relative to the solubility of RB ([2]; 25° C.): 120 times | solubility in the aqueous solution relative to that of RB—C7 ([2]; PBS (pH 7.4), 25° C.): 83 times | solubility in PBS (pH 7.4) ([2]; saturated solution at 25° C., aqueous solution): 0.83 mmol/l | solubility in 1-octanol ([2]; saturated solution at 25° C., organic solvent): 12 mM (≈ 13.4 mg/mL) | occurrence/concentration in tumor tissues (fluorescence intensity ratio to internal standard) [3]: higher than that of RB | subharmonic generation [1]: observed | time bubbles remain after shaking [7]: about 120 seconds | relation between light exposure time and yield in photo-oxidation of iodide [4]: almost proportional to the exposure time | duration of imaging of hepatic artery and aorta [8]: about 30 seconds

CCCCCCCCCCCCCCOC(=O)c1c(Cl)c(Cl)c(Cl)c(Cl)c1-c1c2cc(I)c(=O)c(I)c-2oc2c(I)c(O)c(I)cc12 [RB—Cl4]
relation between light exposure time and yield in photo-oxidation of iodide [4]: almost proportional to the exposure time

Rose bengal-α-carboxyethyl ester [RB—COOH—C2]
occurrence/concentration in tumor tissues (fluorescence intensity ratio to internal standard) [3]: hardly observed | relation between light exposure time and yield in photo-oxidation of iodide [4]: almost proportional to the exposure time

Rose bengal-α-carboxypentadecyl ester [RB—COOH—C15]
occurrence/concentration in tumor tissues (fluorescence intensity ratio to internal standard) [3]: higher than that of RB | subharmonic generation [1]: observed | relation between light exposure time and yield in photo-oxidation of iodide [4]: almost proportional to the exposure time

erythrosine B sodium salt [EB]
subharmonic generation [1]: observed
